14 compounds from ChEMBL document CHEMBL1201862, “PubChem BioAssay data set” (2004) can be followed below.

SMILES strings stand for the structures. Activity calls are given as the source filed them. Bounds are passed on as bounds.

One assay deals with Large T antigen (Simian virus 40, UniProt P03070). In kind it is functional, Betapolyomavirus macacae.
The nature of assay [1]: microbe, parasite or virus in culture. It counts as functional. As to conditions: Mycobacterium tuberculosis.
Assay [2] in a line: viability of PTEN-deleted HCT116 cells – cell-based, HCT116 PTEN knockout, dose response (AID 1047).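 Note: HCT116 colon tumor cells with PTEN knocked out; cells exposed to compound for 60 hours before readout; potency for loss of cell viability measured by luminescence.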 In kind it is functional.
Assay [3] can be described thus: viability of HCT116 lacking mutant beta-catenin – cell-based, human colon tumor, dose response (AID 1045).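 Note: HCT116 colon tumor cells with beta catenin knocked out; cells exposed to compound for 60 hours.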 It counts as functional.
Assay [4] has as its target Induced myeloid leukemia cell differentiation protein Mcl-1 (Homo sapiens, UniProt Q07820). In kind it is functional.
Assay [5] has as its target T1, Short transient receptor potential channel 4 (Mus musculus, UniProt Q9QUQ5).
T1 sequence (Q9QUQ5 whole entry): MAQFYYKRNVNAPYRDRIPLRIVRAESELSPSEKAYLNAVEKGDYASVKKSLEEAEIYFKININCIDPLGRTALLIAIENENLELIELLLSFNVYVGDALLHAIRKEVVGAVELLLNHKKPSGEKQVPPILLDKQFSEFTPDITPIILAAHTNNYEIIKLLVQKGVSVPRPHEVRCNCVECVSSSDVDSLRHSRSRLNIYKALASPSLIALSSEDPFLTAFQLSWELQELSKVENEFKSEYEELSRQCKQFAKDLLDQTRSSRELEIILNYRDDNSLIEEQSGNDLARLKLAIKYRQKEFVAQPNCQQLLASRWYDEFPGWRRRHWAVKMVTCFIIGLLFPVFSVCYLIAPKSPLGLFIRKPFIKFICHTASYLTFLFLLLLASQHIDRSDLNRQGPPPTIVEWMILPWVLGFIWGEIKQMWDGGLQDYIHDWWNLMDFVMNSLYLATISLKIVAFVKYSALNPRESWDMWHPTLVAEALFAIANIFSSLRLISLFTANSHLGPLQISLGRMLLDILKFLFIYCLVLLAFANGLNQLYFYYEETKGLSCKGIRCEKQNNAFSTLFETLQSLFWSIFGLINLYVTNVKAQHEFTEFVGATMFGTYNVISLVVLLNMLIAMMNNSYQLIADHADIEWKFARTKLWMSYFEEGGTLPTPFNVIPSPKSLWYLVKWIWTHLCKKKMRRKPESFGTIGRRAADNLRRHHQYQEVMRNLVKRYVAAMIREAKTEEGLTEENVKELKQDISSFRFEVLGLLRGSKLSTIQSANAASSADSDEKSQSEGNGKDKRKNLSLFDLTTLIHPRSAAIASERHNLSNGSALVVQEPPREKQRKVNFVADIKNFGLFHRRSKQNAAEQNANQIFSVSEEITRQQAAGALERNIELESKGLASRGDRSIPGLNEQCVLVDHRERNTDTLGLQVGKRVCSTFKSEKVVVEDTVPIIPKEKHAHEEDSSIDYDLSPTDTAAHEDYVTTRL
The assay can be described thus: calcium entry via TRPC4 opening agents – cell-based, HEK293 TRPC4/mu-opioid, Fluo-4 calcium, dose response (AID 434937). It counts as functional.

Another assay has as its target Nonstructural protein 1 (Influenza A virus, UniProt Q194T2). In kind it is functional, Influenza A virus (A/California/07/2009(H1N1)).
Assay [6] addresses T2, Histone-lysine N-methyltransferase NSD2 (Homo sapiens, UniProt O96028).
T2 sequence (O96028 whole entry): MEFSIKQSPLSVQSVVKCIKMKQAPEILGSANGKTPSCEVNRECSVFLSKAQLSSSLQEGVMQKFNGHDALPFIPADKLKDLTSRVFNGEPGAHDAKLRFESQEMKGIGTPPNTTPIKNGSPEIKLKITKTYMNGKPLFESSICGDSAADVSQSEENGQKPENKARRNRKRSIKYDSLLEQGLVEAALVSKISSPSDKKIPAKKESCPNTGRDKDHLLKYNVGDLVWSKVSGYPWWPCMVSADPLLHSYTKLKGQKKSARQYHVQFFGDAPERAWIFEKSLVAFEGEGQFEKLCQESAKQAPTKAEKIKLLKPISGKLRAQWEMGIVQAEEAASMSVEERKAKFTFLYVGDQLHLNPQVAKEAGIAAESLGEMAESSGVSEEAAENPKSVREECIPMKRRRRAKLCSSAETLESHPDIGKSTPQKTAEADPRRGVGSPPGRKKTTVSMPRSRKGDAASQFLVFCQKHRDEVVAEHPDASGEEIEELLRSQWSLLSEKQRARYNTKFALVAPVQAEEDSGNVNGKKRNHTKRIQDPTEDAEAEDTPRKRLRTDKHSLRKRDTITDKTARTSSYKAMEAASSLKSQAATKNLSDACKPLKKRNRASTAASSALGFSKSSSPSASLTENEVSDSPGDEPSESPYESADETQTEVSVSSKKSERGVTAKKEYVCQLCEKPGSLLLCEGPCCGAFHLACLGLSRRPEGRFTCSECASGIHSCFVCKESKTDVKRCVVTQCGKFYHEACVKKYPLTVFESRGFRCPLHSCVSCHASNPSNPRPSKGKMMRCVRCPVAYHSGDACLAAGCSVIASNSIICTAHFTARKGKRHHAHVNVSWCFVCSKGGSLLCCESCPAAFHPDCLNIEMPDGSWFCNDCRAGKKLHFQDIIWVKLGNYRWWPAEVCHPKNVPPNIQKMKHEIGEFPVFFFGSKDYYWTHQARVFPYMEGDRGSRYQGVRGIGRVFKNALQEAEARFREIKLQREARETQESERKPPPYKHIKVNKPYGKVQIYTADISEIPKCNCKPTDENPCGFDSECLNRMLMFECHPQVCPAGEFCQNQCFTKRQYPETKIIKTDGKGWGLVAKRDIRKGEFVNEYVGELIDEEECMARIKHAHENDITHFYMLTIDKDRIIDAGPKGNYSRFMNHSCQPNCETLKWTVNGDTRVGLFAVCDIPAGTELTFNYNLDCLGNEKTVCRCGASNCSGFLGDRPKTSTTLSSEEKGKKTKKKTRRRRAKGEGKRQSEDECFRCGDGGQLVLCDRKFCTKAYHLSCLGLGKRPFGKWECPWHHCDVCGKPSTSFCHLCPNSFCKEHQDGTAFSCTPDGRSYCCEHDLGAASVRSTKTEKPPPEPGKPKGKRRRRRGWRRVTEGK
In kind it is biochemical.

For assay [7], the system named is Streptococcus sp. 'group A'. As to the kind of experiment: Streptococcus pyogenes SK(-)GAS viability under kanamycin – luminescence, BacTiterGlo, confirmation, counter-screen for streptokinase expression inhibitor project, dose response (AID 1900). In kind it is functional, organism-based. (In general: Counterscreens check selectivity or assay interference.)
For a further assay, the target named is T3, Streptokinase A (Streptococcus pyogenes serotype M1, UniProt P10520).
T3 sequence (P10520 whole entry): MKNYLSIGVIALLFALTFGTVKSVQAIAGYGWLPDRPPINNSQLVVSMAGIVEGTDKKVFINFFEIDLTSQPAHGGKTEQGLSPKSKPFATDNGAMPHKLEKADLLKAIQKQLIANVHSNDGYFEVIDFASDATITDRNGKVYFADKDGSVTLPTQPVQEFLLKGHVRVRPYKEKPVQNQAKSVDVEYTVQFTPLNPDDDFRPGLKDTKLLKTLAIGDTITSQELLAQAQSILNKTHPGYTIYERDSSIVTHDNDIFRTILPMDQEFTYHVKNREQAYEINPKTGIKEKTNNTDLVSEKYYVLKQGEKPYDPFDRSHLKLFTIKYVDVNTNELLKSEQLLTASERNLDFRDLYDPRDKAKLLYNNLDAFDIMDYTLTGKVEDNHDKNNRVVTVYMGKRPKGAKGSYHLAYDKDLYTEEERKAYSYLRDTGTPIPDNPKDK
The assay can be described thus: viability-normalized secreted streptokinase activity reduction – plasminogen activation absorbance, OD405, dose response (AID 1914).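 Note: secreted streptokinase activity via plasminogen activation per viability signal from cell pellet.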 In kind it is functional, Streptococcus pyogenes M1 GAS.

A further assay has as its system Streptococcus. As to the kind of experiment: GAS UMAA2166 growth inhibition – luminescence, BacTiterGlo, counter-screen for streptokinase expression inhibitor project, dose response (AID 1915).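 Note: potency for reduction of bacterial viability or growth.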 It counts as functional, organism-based.
The target of assay [8] is T4, Mannose-6-phosphate isomerase (Homo sapiens, UniProt P34949).
T4 sequence (P34949 whole entry): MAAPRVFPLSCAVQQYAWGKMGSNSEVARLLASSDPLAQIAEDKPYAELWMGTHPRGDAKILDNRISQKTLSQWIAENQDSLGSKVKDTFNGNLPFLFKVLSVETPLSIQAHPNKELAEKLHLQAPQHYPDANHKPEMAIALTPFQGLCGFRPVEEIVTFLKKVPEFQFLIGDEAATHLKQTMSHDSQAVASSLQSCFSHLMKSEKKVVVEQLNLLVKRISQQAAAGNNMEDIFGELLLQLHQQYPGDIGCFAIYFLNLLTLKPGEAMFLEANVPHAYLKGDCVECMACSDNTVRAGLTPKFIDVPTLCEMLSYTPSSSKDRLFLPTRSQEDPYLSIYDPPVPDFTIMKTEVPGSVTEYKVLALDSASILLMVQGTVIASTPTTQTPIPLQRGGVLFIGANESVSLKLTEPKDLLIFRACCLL
The assay can be described thus: MPI inhibition at elevated mannose 6-phosphate – biochemical, fluorescence intensity, high mannose 6-phosphate, primary screen (AID 1220).

Assay [9] concerns the target T5, Rac GTPase-activating protein 1 (Homo sapiens, UniProt Q9H0H5).
T5 sequence (Q9H0H5 whole entry): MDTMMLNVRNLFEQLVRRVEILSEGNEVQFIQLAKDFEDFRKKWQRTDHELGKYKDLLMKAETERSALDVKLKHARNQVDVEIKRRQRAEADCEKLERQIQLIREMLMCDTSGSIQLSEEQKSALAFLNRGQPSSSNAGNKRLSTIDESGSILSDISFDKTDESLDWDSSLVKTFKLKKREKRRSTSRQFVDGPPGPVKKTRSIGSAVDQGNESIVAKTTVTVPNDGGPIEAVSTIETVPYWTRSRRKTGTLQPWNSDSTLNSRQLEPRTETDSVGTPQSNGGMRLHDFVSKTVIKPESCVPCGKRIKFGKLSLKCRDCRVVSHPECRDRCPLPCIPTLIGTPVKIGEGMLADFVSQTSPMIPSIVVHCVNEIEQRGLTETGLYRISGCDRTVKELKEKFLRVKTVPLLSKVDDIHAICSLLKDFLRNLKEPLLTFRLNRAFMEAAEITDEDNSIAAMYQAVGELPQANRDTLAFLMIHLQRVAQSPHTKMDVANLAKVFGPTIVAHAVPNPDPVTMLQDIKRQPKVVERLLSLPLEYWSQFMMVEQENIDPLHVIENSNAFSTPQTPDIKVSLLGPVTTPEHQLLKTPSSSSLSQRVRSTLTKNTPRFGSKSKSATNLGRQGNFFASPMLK
The assay can be described thus: blockers of MgcRacGAP-driven Rac1 GTP hydrolysis – biochemical, ADP Hunter fluorescence, primary and confirmatory, confirmation (AID 624330). It counts as functional.

In general, IC50 refers to the concentration that gives 50% inhibition. As a reminder, the EC50 is the midpoint of the concentration-response curve. By AC50 is commonly meant the concentration at which the activity in the assay is half-maximal.

Large T antigen, sequence (P03070 whole entry): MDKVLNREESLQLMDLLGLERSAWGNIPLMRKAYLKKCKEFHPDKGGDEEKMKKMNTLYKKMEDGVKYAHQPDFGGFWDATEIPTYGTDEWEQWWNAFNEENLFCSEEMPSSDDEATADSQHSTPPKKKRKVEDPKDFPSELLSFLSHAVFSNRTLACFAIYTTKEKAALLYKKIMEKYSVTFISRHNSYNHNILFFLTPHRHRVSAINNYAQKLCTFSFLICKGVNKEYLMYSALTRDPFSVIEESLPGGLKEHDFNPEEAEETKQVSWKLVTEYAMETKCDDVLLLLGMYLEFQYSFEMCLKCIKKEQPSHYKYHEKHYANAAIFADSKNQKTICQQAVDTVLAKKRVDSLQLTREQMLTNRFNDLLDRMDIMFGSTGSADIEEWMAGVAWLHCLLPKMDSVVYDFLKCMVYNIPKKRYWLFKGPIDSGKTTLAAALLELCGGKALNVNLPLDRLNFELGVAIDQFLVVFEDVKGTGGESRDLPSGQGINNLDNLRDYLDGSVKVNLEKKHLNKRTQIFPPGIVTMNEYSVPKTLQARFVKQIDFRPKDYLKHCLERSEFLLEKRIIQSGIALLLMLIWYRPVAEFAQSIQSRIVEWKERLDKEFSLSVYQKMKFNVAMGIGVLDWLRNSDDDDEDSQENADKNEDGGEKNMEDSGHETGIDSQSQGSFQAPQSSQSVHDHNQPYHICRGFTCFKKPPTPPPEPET
Induced myeloid leukemia cell differentiation protein Mcl-1, sequence (Q07820 whole entry): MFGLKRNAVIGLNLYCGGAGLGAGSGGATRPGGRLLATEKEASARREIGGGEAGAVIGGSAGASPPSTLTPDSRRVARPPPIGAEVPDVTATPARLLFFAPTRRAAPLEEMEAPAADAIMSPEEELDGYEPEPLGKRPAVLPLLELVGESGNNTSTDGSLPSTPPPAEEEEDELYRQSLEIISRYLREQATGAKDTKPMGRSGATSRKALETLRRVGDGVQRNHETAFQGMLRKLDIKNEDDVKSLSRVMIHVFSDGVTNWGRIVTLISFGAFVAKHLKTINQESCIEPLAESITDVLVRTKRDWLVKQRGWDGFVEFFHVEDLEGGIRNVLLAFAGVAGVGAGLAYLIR
Nonstructural protein 1, sequence (Q194T2 whole entry): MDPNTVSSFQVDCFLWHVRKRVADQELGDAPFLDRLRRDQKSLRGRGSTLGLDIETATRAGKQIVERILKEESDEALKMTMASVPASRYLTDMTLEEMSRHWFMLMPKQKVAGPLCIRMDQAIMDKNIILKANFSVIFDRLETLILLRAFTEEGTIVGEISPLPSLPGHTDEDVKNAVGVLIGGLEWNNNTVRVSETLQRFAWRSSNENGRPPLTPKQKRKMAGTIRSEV

As for `Oc1ccc(/C=N/Nc2ccc(C(F)(F)F)cn2)cc1O`, the IC50 on Large T antigen is 48.3 µM (active).

On to `Cc1cncn1CCc1nc2c3ccccc3nc(SCC(=O)Nc3cccc(Cl)c3)n2n1`, for which the CC50 in assay [1] was 14.3 µM (active). Moreover, the EC50 is 13.3 µM (active) in [2] and 10.7 µM (active) in [3].

Turning to `COc1ccc(N2CCN(C(=O)c3ccc(CSc4ccccc4)cc3)CC2)cc1`, the concentration for half-maximal inhibition (IC50) in assay [4] is 4.83 µM (not active).

On to `N=C(N)NN=C1CCCCCCCCCCC1`, for which, in [5], the EC50 was 7.5 µM (active).

With `CN(C)c1cccc2c1C(=O)c1ccccc1C2=O`, on Nonstructural protein 1, the IC50 was 10.1 µM (active). In [6], the half-maximal activity concentration (AC50) is 5.57 µM (active).

Consider `CC(=O)O[C@H]1C[C@@]2(C)[C@@H](C[C@@H](O)[C@H]3[C@@]4(C)CC[C@@H](O)[C@@H](C)[C@@H]4CC[C@@]32C)/C1=C(\CCC=C(C)C)C(=O)O`, for which the values for the EC50 (in assay [7]; at Streptokinase A; in the assay with Streptococcus) were 0.161 µM (active), 0.362 µM (active) and 0.947 µM (active), respectively. Besides, at Large T antigen, the half-maximal inhibitory concentration (IC50) was 20.4 µM (active).

For the compound `CCOC(=O)c1cc(C)n(CCc2c[nH]cn2)c1C`, the concentration giving a half-maximal response (EC50) in assay [5] is 0.0533 µM (active).

For the compound `COc1ccc(CNCCc2c[nH]c3ccccc23)cc1OC`, the concentration for a half-maximal effect (EC50) in assay [5] is 5.96 µM (active).

Consider `CCOc1ccc(/C=N/n2nnnc2N)cc1O`, for which the IC50 at Large T antigen is 9.64 µM (active).

In the case of `Nc1cc2nc[nH]c2cc1N`, the IC50 in assay [4] is reported as > 54 µM (not active); in assay [8], > 50 µM (not active).

On to `COc1ccc(NC(=O)CSC2=C(C#N)C(c3ccco3)C(C(=O)Nc3nc4ccccc4s3)=C(C)N2)cc1` (configuration not stated), for which, in assay [1], the CC50 was > 40 µM (active).

With `CC(C)(C)c1cc(C(=O)N/N=C/c2ccc(O)cc2)n(-c2ccccc2)n1`, the IC50 on Large T antigen is 46.2 µM (active); in assay [9], 122 µM (active).

Consider `CCC(=O)N1CCc2cc(Br)cc(S(=O)(=O)NCCCN(C)Cc3ccccc3)c21`, for which the EC50 in assay [5] was 0.0947 µM (active).

As to `Cc1ccccc1N=C(S)NCCc1ccccn1`, the EC50 in assay [5] was 5.31 µM (active).
